Measured values taken from patent US20190025285A1, “METHODS OF DETERMINING RELATIVE POTENCY OF GLATIRAMER ACETATE AND USE THEREOF IN PREPARING A BATCH OF GLATIRAMER ACETATE AS ACCEPTABLE FOR PHARMACEUTICAL USE” (InSight Biopharmaceutical Ltd., priority 2015, published 2019).

How the values were obtained:
multiple sclerosis = details: cited from earlier work
[1] = tested on: Experimental Autoimmune Encephalomyelitis; details: various animal species; cited from earlier work
[2] = tested on: LNCs extracted from mice immunized with Poly-YAK (YB106); assay: Ex-vivo potency assay: immunization with Poly-YAK (YB106), in-vitro stimulation of LNCs, IL-2 ELISA; assay type: cell-based, mouse; details: specificity samples as in-vitro stimulators
Description: The present inventors developed an ex-vivo biological potency assay to determine the relative potency of GA based on effecting the first stimulus by immunizing mice in-vivo with Poly-YAK (also referred to as activation), and the second stimulus by in-vitro stimulation (also referred to as stimulation) with GA. The assay is composed of 6 major steps depicted in FIG. 1.
Briefly, mice are immunized with a pre-determined amount of Poly-YAK (YB106), mixed 1:1 with CFA (step 1). Eight to ten days later, the mice are sacrificed and draining lymph nodes are harvested. Lymph node cells (LNCs) are extracted from the lymph nodes and counted (step 2). […] The Level of IL-2 secretion from the cells into the culture media is determined by a commercial IL-2 ELISA (step 4).
In order to determine the relative potency of a tested batch, IL-2 secretion by the LNCs incubated with the tested batch samples is compared to the IL-2 secretion by the LNCs incubated with RS samples (step 5). Parallelism of the RS and tested batch curves and potency of the tested batch are determined accordingly (step 6). […]
Lymph node cells (LNCs) extraction—The primary culture of LNCs was prepared 8 to 10 days following immunization. […] The cells were then collected in 10-20 ml RPMI or AIM-V complete medium and counted by hemocytometer using Erythrosine B (Sigma, cat no. E9259). […]

| Substance | total number of enhancing lesions as measured by MRI (multiple sclerosis; MS patients, 20 mg/day subcutaneous dose) | frequency of relapses (multiple sclerosis; relapsing-remitting MS clinical trials) | suppression of EAE [1] | IL-2 secretion response pattern in comparison to RS [2] |
| --- | --- | --- | --- | --- |
| L-glutamic acid polymer with L-alanine, L-lysine and L-tyrosine, acetate (salt) [GA] | reduce the total number of enhancing lesions | reduce the frequency of relapses | suppress Experimental Autoimmune Encephalomyelitis | – |
| MBP peptide (87-99): Myelin Basic Protein peptide 87-99 (BACHEM H-1964), negative control (SRPHLIRLFSRDA; UniProt P02686 87-99, looked up, fragment) | – | – | – | did not induce IL-2 secretion response |
